Test: cn = amount concentration of the nth substance listed, in mol/dm3

CCCCCCCCCCCCn1cc[n+](C)c1.[Br-] [1-dodecyl-3-methylimidazolium bromide] + O
surface tension liquid-gas [mN/m]
Details | c1 = 0.0001 | c1 = 0.0005 | c1 = 0.0015 | c1 = 0.005 | c1 = 0.01 | c1 = 0.02 | c1 = 0.03 | c1 = 0.04 | c1 = 0.05
278.15 K | 64.79 | 61.21 | 56.82 | 45.33 | 37.64 | 37.72 | 37.73 | 37.53 | 37.59
288.15 K | 62.93 | 60.86 | 56.68 | 44.27 | 37.52 | 37.63 | 37.41 | 37.77 | 37.61
298.15 K | 62.21 | 59.84 | 55.19 | 43.81 | 37.45 | 37.41 | 37.15 | 37.23 | 37.26
308.15 K | 60.48 | 58.62 | 55.18 | 44.47 | 37.18 | 37.55 | 37.38 | 37.42 | 37.23
318.15 K | 58.84 | 56.56 | 53.88 | 43.89 | 36.92 | 37.12 | 37.47 | 37.3 | 37.06
328.15 K | 57.61 | 55.07 | 50.63 | 42.36 | 37.64 | 37.03 | 37.16 | 37.06 | 37.09

CCCCCCCCCCCCCCCCn1cc[n+](C)c1.[Br-] [1-hexadecyl-3-methylimidazolium bromide] + O
surface tension liquid-gas [mN/m]
Details | 278.15 K | 288.15 K | 298.15 K | 308.15 K | 318.15 K | 328.15 K
c1 = 5e-06 | 69.16 | 66.26 | 63.93 | 61.53 | 58.5 | 55.05
c1 = 2e-05 | 63.91 | 61.84 | 60 | 58.48 | 54.53 | 51.85
c1 = 0.0001 | 56.17 | 52.62 | 51.14 | 49.46 | 47.36 | 45.42
c1 = 0.0002 | 50.9 | 48.63 | 46.77 | 45.39 | 42.7 | 42.13
c1 = 0.0003 | 46.66 | 43.95 | 43.38 | 41.17 | 39.84 | 39.44
c1 = 0.0004 | 42.78 | 41.32 | 39.38 | 38.02 | 37.93 | 38
c1 = 0.0005 | 39.25 | 37.45 | 37.26 | 36.21 | 36.75 | 37.07
c1 = 0.0008 | 38.25 | 37.54 | 37.37 | 36.14 | 36.11 | 36.2
c1 = 0.0011 | 38.38 | 37.4 | 37.09 | 36.28 | 36.18 | 36.25
c1 = 0.002 | 38.11 | 37.87 | 37.19 | 36.97 | 36.12 | 36.15
c1 = 0.004 | 37.61 | 37.33 | 37.21 | 36.37 | 36.04 | 35.98

CCCCCCCCCCCCCCn1cc[n+](C)c1.[Br-] [1-methyl-3-tetradecylimidazolium bromide] + O
surface tension liquid-gas [mN/m]
Details | c1 = 5e-05 | c1 = 0.0001 | c1 = 0.0003 | c1 = 0.0005 | c1 = 0.001 | c1 = 0.002 | c1 = 0.004 | c1 = 0.006 | c1 = 0.008 | c1 = 0.01
278.15 K | 64.69 | 64.07 | 61.72 | 55.17 | 50.32 | 41.28 | 38.44 | 38.68 | 38.88 | 38.88
288.15 K | 62.69 | 62.07 | 59.72 | 53.17 | 48.32 | 40.28 | 37.94 | 38.18 | 38.38 | 38.38
298.15 K | 61.26 | 60.88 | 57.1 | 52.79 | 47.37 | 39.48 | 37.81 | 37.73 | 37.57 | 37.57
308.15 K | 59.5 | 58.59 | 54.93 | 51.51 | 45.26 | 39.15 | 37.81 | 37.51 | 37.67 | 37.6
318.15 K | 57.16 | 55.92 | 52.9 | 49.56 | 43.88 | 39.15 | 37.12 | 37.13 | 37.12 | 37.13
328.15 K | 54.16 | 52.7 | 50.17 | 46.39 | 42.75 | 38.28 | 36.2 | 36.32 | 36.58 | 36.45
